Legend:
[1] = tested on: antibodies in sera from SARS patients (sera 1a, 1b, 2, 6, 37, 62, London, SARS-yellow, SARS-green); format: binding, human; set-up: Binding of serum 6 to linear peptides of protein X1 of SARS-CoV Urbani / Binding of serum 37 to linear peptides of protein X1 of SARS-CoV Urbani / Binding of serum 6 to looped/cyclic peptide (PEPSCAN-ELISA) / Binding of serum 37 to looped/cyclic peptide (PEPSCAN-ELISA) / Binding of serum 37 to looped/cyclic peptides of protein X1 of SARS-CoV Urbani / Binding of serum 6 to linear peptides of protein X2 / Binding of serum 37 to linear peptides of protein X2 / Binding of serum 37 to looped/cyclic peptides of protein X2 of SARS-CoV Urbani / Binding of serum 6 to linear peptides of protein M of SARS-CoV Urbani / Binding of serum 37 to linear peptides of protein M of SARS-CoV Urbani / Binding of serum 6 to looped/cyclic peptides of protein M of SARS-CoV Urbani / Binding of serum 37 to looped/cyclic peptides of protein M of SARS-CoV Urbani / Binding of serum 6 to linear peptides of protein X3 of SARS-CoV Urbani / Binding of serum 37 to linear peptides of protein X3 of SARS-CoV Urbani / Binding of serum 37 to looped/cyclic peptides of protein X3 of SARS-CoV Urbani / Binding of serum 6 to linear peptides of protein X4 of SARS-CoV Urbani / Binding of serum 37 to linear peptides of protein X4 of SARS-CoV Urbani / Binding of serum 37 to looped/cyclic peptides of protein X4 of SARS-CoV Urbani / Binding of serum 6 to linear peptides of protein X5 of SARS-CoV Urbani / Binding of serum 37 to linear peptides of protein X5 of SARS-CoV Urbani / Binding of serum 37 to looped/cyclic peptides of protein X5 of SARS-CoV Urbani / Binding of serum 6 to linear peptides of protein N of SARS-CoV Urbani / Binding of serum 37 to linear peptides of protein N of SARS-CoV Urbani / Binding of serum 6 to linear peptide (PEPSCAN-ELISA) / Binding of serum 1a to looped/cyclic peptides of protein N of SARS-CoV Urbani / Binding of serum 1b to looped/cyclic peptides of protein N of SARS-CoV Urbani / Binding of serum 2 to looped/cyclic peptides of protein N of SARS-CoV Urbani / Binding of serum 6 to looped/cyclic peptides of protein N of SARS-CoV Urbani / Binding of serum 37 to looped/cyclic peptides of protein N of SARS-CoV Urbani / Binding of serum 62 to looped/cyclic peptides of protein N of SARS-CoV Urbani / Binding of serum London to looped/cyclic peptides of protein N of SARS-CoV Urbani / Binding of serum SARS-green to looped/cyclic peptides of protein N of SARS-CoV Urbani: unit not given here
[2] = tested on: control sera (pooled serum of ten healthy LUMC hospital workers; commercial negative donor pooled serum from the Dutch bloodbank); format: binding, human; set-up: Binding of Control serum LUMC to linear peptides / Binding of Control serum Blood-bank to linear peptides / Binding of Control serum LUMC to looped peptides / Binding of Control Serum Blood-Bank to Looped peptides / Binding of Control serum LUMC to linear peptides of the protein M of SARS-CoV Urbani / Binding of Control serum Blood-bank to linear peptides of the protein M of SARS-CoV Urbani / Binding of Control serum LUMC to looped peptides of the protein M of SARS-CoV Urbani / Binding of Control Serum Blood-Bank to Looped peptides of the protein M of SARS-CoV Urbani: unit not given here
[3] = tested on: rabbit serum obtained by immunizing a rabbit with the SARS-CoV strain Frankfurt 1; format: binding; set-up: Binding of a rabbit serum to linear peptides / Binding of a rabbit serum to looped peptides / Rabbit serum linear peptides / Rabbit serum looped peptides / Binding of a rabbit serum to linear peptides of protein N of SARS-CoV Urbani (Rabbit serum linear peptides) / Binding of a rabbit serum to looped/cyclic peptides of protein N of SARS-CoV Urbani (Rabbit serum looped peptides): unit not given here

## IPLQASLPFGWLVIG
[1]
  Binding of serum 1a to linear peptides of protein X1 of SARS-CoV Urbani: 0.8
  Binding of serum 1a to looped/cyclic peptide (PEPSCAN-ELISA): 0.6
  Binding of serum 1b to linear peptides of protein X1 of SARS-CoV Urbani: 0.6
  Binding of serum 1b to looped/cyclic peptide (PEPSCAN-ELISA): 0.4
  Binding of serum 2 to linear peptides of protein X1 of SARS-CoV Urbani: 0.6
  Binding of serum 2 to looped/cyclic peptide (PEPSCAN-ELISA): 0.4
  Binding of serum 6 to linear peptides of protein X1 of SARS-CoV Urbani: 0.5
  Binding of serum 6 to looped/cyclic peptide (PEPSCAN-ELISA): 0.3
  Binding of serum 37 to linear peptides of protein X1 of SARS-CoV Urbani: 0.7
  Binding of serum 37 to looped/cyclic peptide (PEPSCAN-ELISA): 0.5
  Binding of serum 62 to linear peptides of protein X1 of SARS-CoV Urbani: 0.6
  Binding of serum 62 to looped/cyclic peptide (PEPSCAN-ELISA): 0.6
  Binding of serum London to linear peptides of protein X1 of SARS-CoV Urbani: 0.3
  Binding of serum London to looped/cyclic peptide (PEPSCAN-ELISA): 0.2
  Binding of serum SARS-green to linear peptides of protein X1 of SARS-CoV Urbani: 0.4
  Binding of serum SARS-green to looped/cyclic peptide (PEPSCAN-ELISA): 0.3
  Binding of serum SARS-yellow to linear peptides of protein X1 of SARS-CoV Urbani: 0.5
  Binding of serum SARS-yellow to looped/cyclic peptide (PEPSCAN-ELISA): 0.3
[2]
  Binding of Control Serum Blood-Bank to Looped peptides: 0.6
  Binding of Control serum Blood-bank to linear peptides: 0.7
  Binding of Control serum LUMC to linear peptides: 0.8
  Binding of Control serum LUMC to looped peptides: 0.6
[3]
  Binding of a rabbit serum to linear peptides: 0.1
  Binding of a rabbit serum to looped peptides: 0.5

## LLKEPCPSGTYEGNS
[1]
  Binding of serum 1a to linear peptides of protein X4 of SARS-CoV Urbani: 0.8
  Binding of serum 1a to looped/cyclic peptides of protein X4 of SARS-CoV Urbani: 0.8
  Binding of serum 1b to linear peptides of protein X4 of SARS-CoV Urbani: 0.6
  Binding of serum 1b to looped/cyclic peptides of protein X4 of SARS-CoV Urbani: 0.6
  Binding of serum 2 to linear peptides of protein X4 of SARS-CoV Urbani: 0.3
  Binding of serum 2 to looped/cyclic peptides of protein X4 of SARS-CoV Urbani: 0.6
  Binding of serum 6 to linear peptides of protein X4 of SARS-CoV Urbani: 0.6
  Binding of serum 6 to looped/cyclic peptides of protein X4 of SARS-CoV Urbani: 0.7
  Binding of serum 37 to linear peptides of protein X4 of SARS-CoV Urbani: 0.6
  Binding of serum 37 to looped/cyclic peptides of protein X4 of SARS-CoV Urbani: 0.7
  Binding of serum 62 to linear peptides of protein X4 of SARS-CoV Urbani: 0.8
  Binding of serum 62 to looped/cyclic peptides of protein X4 of SARS-CoV Urbani: 0.5
  Binding of serum London to linear peptides of protein X4 of SARS-CoV Urbani: 0.8
  Binding of serum London to looped/cyclic peptides of protein X4 of SARS-CoV Urbani: 0.3
  Binding of serum SARS-green to linear peptides of protein X4 of SARS-CoV Urbani: 0.5
  Binding of serum SARS-green to looped/cyclic peptides of protein X4 of SARS-CoV Urbani: 0.7
  Binding of serum SARS-yellow to linear peptides of protein X4 of SARS-CoV Urbani: 0.2
  Binding of serum SARS-yellow to looped/cyclic peptides of protein X4 of SARS-CoV Urbani: 0.2
[2]
  Binding of Control Serum Blood-Bank to Looped peptides: 0.6
  Binding of Control serum Blood-bank to linear peptides: 0.6
  Binding of Control serum LUMC to linear peptides: 0.6
  Binding of Control serum LUMC to looped peptides: 0.8
[3]
  Rabbit serum linear peptides: 0.3
  Rabbit serum looped peptides: 0.1

## RSVSPKLFIRQEEVQ
[1]
  Binding of serum 1a to linear peptides of protein X4 of SARS-CoV Urbani: 0.7
  Binding of serum 1a to looped/cyclic peptides of protein X4 of SARS-CoV Urbani: 0.6
  Binding of serum 1b to linear peptides of protein X4 of SARS-CoV Urbani: 0.4
  Binding of serum 1b to looped/cyclic peptides of protein X4 of SARS-CoV Urbani: 0.5
  Binding of serum 2 to linear peptides of protein X4 of SARS-CoV Urbani: 0.4
  Binding of serum 2 to looped/cyclic peptides of protein X4 of SARS-CoV Urbani: 0.5
  Binding of serum 6 to linear peptides of protein X4 of SARS-CoV Urbani: 0.5
  Binding of serum 6 to looped/cyclic peptides of protein X4 of SARS-CoV Urbani: 0.5
  Binding of serum 37 to linear peptides of protein X4 of SARS-CoV Urbani: 0.6
  Binding of serum 37 to looped/cyclic peptides of protein X4 of SARS-CoV Urbani: 0.7
  Binding of serum 62 to linear peptides of protein X4 of SARS-CoV Urbani: 0.7
  Binding of serum 62 to looped/cyclic peptides of protein X4 of SARS-CoV Urbani: 0.6
  Binding of serum London to linear peptides of protein X4 of SARS-CoV Urbani: 0.6
  Binding of serum London to looped/cyclic peptides of protein X4 of SARS-CoV Urbani: 0.3
  Binding of serum SARS-green to linear peptides of protein X4 of SARS-CoV Urbani: 0.5
  Binding of serum SARS-green to looped/cyclic peptides of protein X4 of SARS-CoV Urbani: 0.4
  Binding of serum SARS-yellow to linear peptides of protein X4 of SARS-CoV Urbani: 0.2
  Binding of serum SARS-yellow to looped/cyclic peptides of protein X4 of SARS-CoV Urbani: 0.5
[2]
  Binding of Control Serum Blood-Bank to Looped peptides: 0.6
  Binding of Control serum Blood-bank to linear peptides: 0.5
  Binding of Control serum LUMC to linear peptides: 0.4
  Binding of Control serum LUMC to looped peptides: 0.7
[3]
  Rabbit serum linear peptides: 0.4
  Rabbit serum looped peptides: 0.4

## LKVTAFQHQNSKKTT
[1]
  Binding of serum 1a to linear peptides of protein X2: 0.5
  Binding of serum 1a to looped/cyclic peptides of protein X2 of SARS-CoV Urbani: 0.3
  Binding of serum 1b to linear peptides of protein X2: 0.4
  Binding of serum 1b to looped/cyclic peptides of protein X2 of SARS-CoV Urbani: 0.2
  Binding of serum 2 to linear peptides of protein X2: 0.3
  Binding of serum 2 to looped/cyclic peptides of protein X2 of SARS-CoV Urbani: 0.1
  Binding of serum 6 to linear peptides of protein X2: 0.3
  Binding of serum 6 to looped/cyclic peptides of protein X2 of SARS-CoV Urbani: 0.1
  Binding of serum 37 to linear peptides of protein X2: 0.5
  Binding of serum 37 to looped/cyclic peptides of protein X2 of SARS-CoV Urbani: 0.2
  Binding of serum 62 to linear peptides of protein X2: 0.3
  Binding of serum 62 to looped/cyclic peptides of protein X2 of SARS-CoV Urbani: 0.4
  Binding of serum London to linear peptides of protein X2: 0.2
  Binding of serum London to looped/cyclic peptides of protein X2 of SARS-CoV Urbani: 0.1
  Binding of serum SARS-green to linear peptides of protein X2: 0.2
  Binding of serum SARS-green to looped/cyclic peptides of protein X2 of SARS-CoV Urbani: 0.1
  Binding of serum SARS-yellow to linear peptides of protein X2: 0.7
  Binding of serum SARS-yellow to looped/cyclic peptides of protein X2 of SARS-CoV Urbani: 0.2
[2]
  Binding of Control Serum Blood-Bank to Looped peptides: 0.3
  Binding of Control serum Blood-bank to linear peptides: 0.4
  Binding of Control serum LUMC to linear peptides: 0.8
  Binding of Control serum LUMC to looped peptides: 0.4
[3]
  Binding of a rabbit serum to linear peptides: 0.6
  Binding of a rabbit serum to looped peptides: 0.3

## TMSLYMAISPKFTTS
[1]
  Binding of serum 1a to linear peptides of protein X2: 0.5
  Binding of serum 1a to looped/cyclic peptides of protein X2 of SARS-CoV Urbani: 0.6
  Binding of serum 1b to linear peptides of protein X2: 0.0
  Binding of serum 1b to looped/cyclic peptides of protein X2 of SARS-CoV Urbani: 0.6
  Binding of serum 2 to linear peptides of protein X2: 0.4
  Binding of serum 2 to looped/cyclic peptides of protein X2 of SARS-CoV Urbani: 0.4
  Binding of serum 6 to linear peptides of protein X2: 0.3
  Binding of serum 6 to looped/cyclic peptides of protein X2 of SARS-CoV Urbani: 0.4
  Binding of serum 37 to linear peptides of protein X2: 0.2
  Binding of serum 37 to looped/cyclic peptides of protein X2 of SARS-CoV Urbani: 0.5
  Binding of serum 62 to linear peptides of protein X2: 0.7
  Binding of serum 62 to looped/cyclic peptides of protein X2 of SARS-CoV Urbani: 0.7
  Binding of serum London to linear peptides of protein X2: 0.4
  Binding of serum London to looped/cyclic peptides of protein X2 of SARS-CoV Urbani: 0.2
  Binding of serum SARS-green to linear peptides of protein X2: 0.5
  Binding of serum SARS-green to looped/cyclic peptides of protein X2 of SARS-CoV Urbani: 0.4
  Binding of serum SARS-yellow to linear peptides of protein X2: 0.0
  Binding of serum SARS-yellow to looped/cyclic peptides of protein X2 of SARS-CoV Urbani: 0.6
[2]
  Binding of Control Serum Blood-Bank to Looped peptides: 0.8
  Binding of Control serum Blood-bank to linear peptides: 0.5
  Binding of Control serum LUMC to linear peptides: 0.7
  Binding of Control serum LUMC to looped peptides: 0.8
[3]
  Binding of a rabbit serum to linear peptides: 0.2
  Binding of a rabbit serum to looped peptides: 0.5
